Data from paper PMC7349657, “Efficient Targeted Degradation via Reversible and Irreversible Covalent PROTACs” (Journal of the American Chemical Society, 2020).

System: Ramos cells
Test: Label-free quantitative proteomics in Ramos cells
Format: cell-based, Homo sapiens
Conditions: 24 h; for Difference for 50 nM, C11orf98 / Difference for 100 nM, C11orf98: protein C11orf98 (E9PRG8); for Difference for 50 nM, MED19 / Difference for 100 nM, MED19: protein MED19 (A0JLT2); for Difference for 50 nM, MIF4GD / Difference for 100 nM, MIF4GD: protein MIF4GD (A9UHW6); for Difference for 50 nM, MAP1LC3B;MAP1LC3B2;MAP1LC3A / Difference for 100 nM, MAP1LC3B;MAP1LC3B2;MAP1LC3A: proteins MAP1LC3B;MAP1LC3B2;MAP1LC3A
Procedure: To assess their proteomic selectivity, we incubated the PROTACs at 50 or 100 nM for 24 h with Ramos cells and followed the change in protein abundance via quantitative label-free proteomics (Figure 7, Supporting Figure 6). In agreement with the Western blot analysis, BTK was efficiently degraded by all the PROTACs we tested. […] Ramos cells were incubated with each PROTAC (50 nM) or DMSO in quadruplicates for 24 h and were then subjected to label-free quantitative proteomics analysis. Each graph plots the Log2 fold-change of proteins in the treated samples compared to the DMSO controls (x-axis) vs the −log(p-value) of that comparison in a Student’s t test (y-axis). […]
supplemented with 300 mM imidazole). The His tag was cleaved by the addition of TEV protease with concomitant dialysis overnight into cleavage buffer (50 mM Tris, pH 8.0, 0.5 mM EDTA, 1 mM DTT) at 4°C. The resulting soluble protein was passed ov er Ni -NTA beads to remove the protease and purified further by gel filtration on a HiLoad_16/60_Superdex_75 (GE Healthcare) column equilibrated with 20 mM Tris, pH 8.0, 50 mM NaCl, 1 mM DTT. The pure protein was then flash-frozen in liquid nitrogen and stored at −80°C.
C57BL/6 mice were purchased from Harlan (Rehovot, Israel) and maintained in a pathogen-free facility, experiments were carried on 8-12 weeks old male mice. All exp eriments with mice were approved by the Weizmann Institute Animal Care and Use Committee.
Splenic cells from C57BL/6 mice were isolated by forcing spleen tissue through mesh into PBS containing 2% fetal calf serum and 1 mM EDTA and red blood cells were depleted by lysis buffer. Cells were cultured in 96-well U-b ottom dishes (1x10^6 cells/m L in RPMI 10% […]
nM, 10 nM, 1 nM, 0.1 nM) for 24 hours at 37° C in 5% humidified CO2 incubator. Following a 24 hours incubation, cells were stimulated with anti-IgM overnight (5 µg/mL, Sigma-Aldrich). Subsequently, cells were stained with anti-B220 (clone RA3-6B2, Biolegend) and anti-CD86 (clone GL-1, Biolegend) antibodies for 30 minutes at 4°C. Single cell suspensions were analyzed by a flow cytometer (CytoFlex, Beckman Coulter).
Cells were analyzed by intensity based, label-free mass spectrometry based proteomics.
Sample preparation: 106 Ramos cells were treated in four replicates with either compound or DMSO for 24 hours. Cells were then washed twice by centrifuge at 200 rcf, 4°C for 5 minutes, removing the supernatant and washed with ice cold PBS. Samp les were then centrifuged at 200 rcf, 4°C for 5 minutes, then supernatant was removed and samples were frozen at -80°C.
Samples were dispersed in 75 µl of 50 mM ammonium bicarbonate, and transferred to 1.8 mL glass vials. 75 µl of 10% SDS in 50 mM ammonium bicarbonate were added and the samples were heated to 96° C for 6 minutes. The samples were sonicated thoroughly in a sonication bath until the DNA was sheared as indicated by reduction in viscosity to level enabling easy pipettation. Total protein concentration was estimated using BCA as say and 30 µg from each sample was taken for the experiment. […]
to 60°C for 45 minutes. The samples were cooled to room temperature, and 1/20 volume of […]
200 mM iodoacetamide was added and the reaction was performed in the dark for 30 minutes.
At this point, 1/10 volume of 12% phosphoric acid was added, followed by 6 volume […]
of 90% methanol in 50 mM ammonium bicarbonate. The samples were loaded on S-trap Micro […]
columns (Protify), and washed 3 times with 90% methanol in 50 mM ammonium bicarbonate.
The columns were spun without washing to dry the methanol. Then, 1 µg of trypsin (Promga) […]
in 20 µl of 50 mM ammonium bicarbonate was added to each column, and they were incubated […]
at 47° C for 1. 5 hours. Then, 40 µl of 50 mM ammonium bicarbonate was added and the sample […]
was eluted and another 0. 5 µg of trypsin was added, fo llowed by overnight incubation at 37 ° C.
The columns themselves were further eluted with 40 µl 0.2% formic acid in water, followed […]

[1] = 50 nM, Log2 fold-change vs DMSO
[2] = 100 nM, Log2 fold-change vs DMSO

| SMILES | effect on off-targets LCK and PLK1 (50 or 100 nM) | off-targets degraded (CSK, LYN, BLK) (50 or 100 nM) | Difference for 50 nM, C11orf98 [1] | Difference for 100 nM, C11orf98 [2] | Difference for 50 nM, MED19 [1] | Difference for 100 nM, MED19 [2] | Difference for 50 nM, MIF4GD [1] | Difference for 100 nM, MIF4GD [2] | Difference for 50 nM, MAP1LC3B;MAP1LC3B2;MAP1LC3A [1] | Difference for 100 nM, MAP1LC3B;MAP1LC3B2;MAP1LC3A [2] | other results |
| --- | --- | --- | --- | --- | --- | --- | --- | --- | --- | --- | --- |
| Nc1ncnc2c1c(-c1ccc(Oc3ccccc3)cc1)nn2C1CCCN(C(=O)C=CCOCCOCCOCCOCCOCCOc2cccc3c2C(=O)N(C2CCC(=O)NC2=O)C3=O)C1 (stereo not shown) [IR-1] | not significantly affected | degraded the known ibrutinib off-targets CSK, LYN, and BLK | -0.4718 | 0.1735 | 0.1815 | -0.5554 | -0.2478 | -0.02661 | 0.1478 | 0.3122 | Difference for 50 nM, RGPD3;RGPD4 (proteins RGPD3;RGPD4, 50 nM, Log2 fold-change vs DMSO): 0.0493; Difference for 100 nM, RGPD3;RGPD4 (proteins RGPD3;RGPD4, 100 nM, Log2 fold-change vs DMSO): 0.2554 |
| CC(C)(C=C(C#N)C(=O)N1CCCC(n2nc(-c3ccc(Oc4ccccc4)cc3)c3c(N)ncnc32)C1)CCCOCCOCCOCCOCCOc1cccc2c1C(=O)N(C1CCC(=O)NC1=O)C2=O (stereo not shown) [RC-3] |  | the only significant off-target of RC-3 was BLK |  |  | 0.1151 | 0.03137 |  |  | -0.1457 | 0.000999 | activity against noncovalent off-targets CSK and LYN (50 or 100 nM): no activity; Difference for 50 nM, SAC3D1 (protein SAC3D1 (A6NKF1), 50 nM, Log2 fold-change vs DMSO): -1.386; Difference for 100 nM, SAC3D1 (protein SAC3D1 (A6NKF1), 100 nM, Log2 fold-change vs DMSO): -0.4129; Difference for 50 nM, TRAPPC13 (protein TRAPPC13 (A5PLN9), 50 nM, Log2 fold-change vs DMSO): -0.1201; Difference for 100 nM, TRAPPC13 (protein TRAPPC13 (A5PLN9), 100 nM, Log2 fold-change vs DMSO): -0.2022; Difference for 50 nM, GPR89B;GPR89A (proteins GPR89B;GPR89A, 50 nM, Log2 fold-change vs DMSO): -0.3119; Difference for 100 nM, GPR89B;GPR89A (proteins GPR89B;GPR89A, 100 nM, Log2 fold-change vs DMSO): -0.8716 |
| N#CC(=CCCCCOCCOCCOCCOCCOc1cccc2c1C(=O)N(C1CCC(=O)NC1=O)C2=O)C(=O)N1CCCC(n2nc(-c3ccc(Oc4ccccc4)cc3)c3c(N)ncnc32)C1 (stereo not shown) [RC-2] | not significantly affected | degraded the known ibrutinib off-targets CSK, LYN, and BLK | -0.2599 | 0.08889 |  |  |  |  | -0.1598 | 0.1213 | Difference for 50 nM, ESYT2 (protein ESYT2 (A0FGR8), 50 nM, Log2 fold-change vs DMSO): 0.001137; Difference for 100 nM, ESYT2 (protein ESYT2 (A0FGR8), 100 nM, Log2 fold-change vs DMSO): -0.137; Difference for 50 nM, HAX1 (protein HAX1 (O00165), 50 nM, Log2 fold-change vs DMSO): -0.1673; Difference for 100 nM, HAX1 (protein HAX1 (O00165), 100 nM, Log2 fold-change vs DMSO): 0.4145; Difference for 50 nM, UNC119B (protein UNC119B (A6NIH7), 50 nM, Log2 fold-change vs DMSO): -0.2229; Difference for 100 nM, UNC119B (protein UNC119B (A6NIH7), 100 nM, Log2 fold-change vs DMSO): -0.06661 |
| Nc1ncnc2c1c(-c1ccc(Oc3ccccc3)cc1)nn2C1CCCN(C(=O)CCCCCCOCCOCCOCCOCCOc2cccc3c2C(=O)N(C2CCC(=O)NC2=O)C3=O)C1 (stereo not shown) [NC-1] | not significantly affected | degraded the known ibrutinib off-targets CSK, LYN, and BLK |  |  |  |  | 0.1494 | 0.1711 | -0.1034 | 0.1967 | BTK degradation (proteomics) (50 or 100 nM): highest degradation potency against BTK; Difference for 50 nM, NUDT19 (protein NUDT19 (A8MXV4), 50 nM, Log2 fold-change vs DMSO): 0.09117; Difference for 100 nM, NUDT19 (protein NUDT19 (A8MXV4), 100 nM, Log2 fold-change vs DMSO): 0.676; Difference for 50 nM, ZC3H12D (protein ZC3H12D (A2A288), 50 nM, Log2 fold-change vs DMSO): -0.03901; Difference for 100 nM, ZC3H12D (protein ZC3H12D (A2A288), 100 nM, Log2 fold-change vs DMSO): -0.07076; Difference for 50 nM, SNRPG;SNRPGP15 (proteins SNRPG;SNRPGP15, 50 nM, Log2 fold-change vs DMSO): -0.1263; Difference for 100 nM, SNRPG;SNRPGP15 (proteins SNRPG;SNRPGP15, 100 nM, Log2 fold-change vs DMSO): 0.0004592 |
| Nc1ncnc2c1c(-c1ccc(Oc3ccccc3)cc1)nn2C1CCCN(C(=O)C=CCCCCOCCOCCOCCOCCOc2cccc3c2C(=O)N(C2CCC(=O)NC2=O)C3=O)C1 (stereo not shown) [IR-2] | not significantly affected | degraded the known ibrutinib off-targets CSK, LYN, and BLK | -0.1649 | -0.1913 | -0.004671 | 0.772 |  |  | -0.3401 | -0.09776 | Difference for 50 nM, POM121C (protein POM121C, 50 nM, Log2 fold-change vs DMSO): 0.7405; Difference for 100 nM, POM121C (protein POM121C, 100 nM, Log2 fold-change vs DMSO): 0.8148; Difference for 50 nM, RASA4;RASA4B (proteins RASA4;RASA4B, 50 nM, Log2 fold-change vs DMSO): 0.1914; Difference for 100 nM, RASA4;RASA4B (proteins RASA4;RASA4B, 100 nM, Log2 fold-change vs DMSO): -0.07223 |
